From US10167262B2, “Herbicidal substituted 3-arylpyrazoles” (FMC CORPORATION, priority 2014, dated 2019)

Columns and labels:
Test in all cases: Test E pre-/postemergence greenhouse test, plant response rating 0-100
Assay type in all cases: in vivo
[1] = test system: Brazilian crabgrass (Digitaria horizontalis); settings: scale 0 to 100; for Crabgrass, Brazil plant response rating: Preemergence
Procedure, shortened: (§1)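 Visual control score, 0–100 relative to untreated plants, recorded 14–21 days after spraying. Treatments: preemergence on silt loam seedbeds and postemergence at the 1- to 4-leaf stage, with compound in surfactant-containing solvent.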

[2] = test system: arrowleaf sida (Sida rhombifolia); settings: for Arrowleaf Sida plant response rating: Preemergence
Procedure, shortened: as §1

corn (Zea mays) = settings: scale 0 to 100; for Corn plant response rating: Preemergence
Procedure, shortened: as §1

[3] = test system: dayflower (Virginia (VA) dayflower, Commelina virginica); settings: scale 0 to 100; for Dayflower, VA plant response rating: Preemergence
Procedure, shortened: as §1

[4] = test system: fall panicum (Panicum dichotomiflorum); settings: scale 0 to 100; for Panicum, Fall plant response rating: Preemergence
Procedure, shortened: as §1

[5] = test system: field bindweed (Convolvulus arvensis); settings: scale 0 to 100; for Field Bindweed plant response rating: Preemergence
Procedure, shortened: as §1

[6] = test system: hairy beggarticks (Bidens pilosa); settings: scale 0 to 100; for Beggarticks plant response rating: Preemergence
Procedure, shortened: as §1

[7] = test system: palmer pigweed (Amaranthus palmeri); settings: scale 0 to 100; for Pigweed, Palmer plant response rating: Preemergence
Procedure, shortened: as §1

[8] = test system: sandbur (southern sandbur, Cenchrus echinatus); settings: scale 0 to 100; for Sandbur plant response rating: Preemergence
Procedure, shortened: as §1

soybean (Glycine max) = settings: scale 0 to 100; for Soybean plant response rating: Preemergence
Procedure, shortened: as §1

[9] = test system: waterhemp (common waterhemp, Amaranthus rudis); settings: scale 0 to 100; for Waterhemp plant response rating: Preemergence
Procedure, shortened: as §1

[10] = test system: wild poinsettia (Euphorbia heterophylla); settings: scale 0 to 100; for Poinsettia, Wild plant response rating: Preemergence
Procedure, shortened: as §1

C#CCn1cc(C(=O)c2ccccc2)c(-c2cc(Cl)cc(Cl)c2)n1 [Compound 39, [3-(3,5-dichlorophenyl)-1-(2-propyn-1-yl)-1H-pyrazol-4-yl]phenylmethanone]
pest or weed control at 31 g/ha ([1]; Digitaria horizontalis, post-emergence, Postemergence, 31 g ai/ha, read-out: Plant response rating, Crabgrass, Brazil): 0%
pest or weed control at 62 g/ha ([1]; Digitaria horizontalis, post-emergence, Postemergence, 62 g ai/ha, read-out: Plant response rating, Crabgrass, Brazil): 0%
pest or weed control at 125 g/ha ([1]; Digitaria horizontalis, post-emergence, Postemergence, 125 g ai/ha, read-out: Plant response rating, Crabgrass, Brazil): 0%
pest or weed control at 250 g/ha ([1]; Digitaria horizontalis, post-emergence, Postemergence, 250 g ai/ha, read-out: Plant response rating, Crabgrass, Brazil): 0%
pest or weed control at 500 g/ha ([1]; Digitaria horizontalis, post-emergence, Postemergence, 500 g ai/ha, read-out: Plant response rating, Crabgrass, Brazil): 5%
Crabgrass, Brazil plant response rating ([1]; 62 g ai/ha): 0
Crabgrass, Brazil plant response rating ([1]; 125 g ai/ha): 0
Crabgrass, Brazil plant response rating ([1]; 250 g ai/ha): 0
Crabgrass, Brazil plant response rating ([1]; 500 g ai/ha): 0
Arrowleaf Sida plant response rating ([2]; 62 g ai/ha, scale 0 to 100): 0
Arrowleaf Sida plant response rating ([2]; 125 g ai/ha, scale 0 to 100): 90
Arrowleaf Sida plant response rating ([2]; 250 g ai/ha, scale 0 to 100): 95
Arrowleaf Sida plant response rating ([2]; 500 g ai/ha, scale 0 to 100): 95
pest or weed control at 31 g/ha ([2]; Sida rhombifolia, post-emergence, Postemergence, 31 g ai/ha, scale 0 to 100): 75%
pest or weed control at 62 g/ha ([2]; Sida rhombifolia, post-emergence, Postemergence, 62 g ai/ha, scale 0 to 100): 80%
pest or weed control at 125 g/ha ([2]; Sida rhombifolia, post-emergence, Postemergence, 125 g ai/ha, scale 0 to 100): 85%
pest or weed control at 250 g/ha ([2]; Sida rhombifolia, post-emergence, Postemergence, 250 g ai/ha, scale 0 to 100): 90%
pest or weed control at 500 g/ha ([2]; Sida rhombifolia, post-emergence, Postemergence, 500 g ai/ha, scale 0 to 100 (0 no effect, 100 complete control)): 90%
Corn plant response rating (corn (Zea mays); 62 g ai/ha): 0
Corn plant response rating (corn (Zea mays); 125 g ai/ha): 0
Corn plant response rating (corn (Zea mays); 250 g ai/ha): 0
Corn plant response rating (corn (Zea mays); 500 g ai/ha): 0
Corn plant response rating (crop injury, 0 = no effect, 100 = complete kill) at 31 g/ha (corn (Zea mays); Zea mays, post-emergence, Postemergence, 31 g ai/ha): 0%
Corn plant response rating (crop injury, 0 = no effect, 100 = complete kill) at 62 g/ha (corn (Zea mays); Zea mays, post-emergence, Postemergence, 62 g ai/ha): 0%
Corn plant response rating (crop injury, 0 = no effect, 100 = complete kill) at 125 g/ha (corn (Zea mays); Zea mays, post-emergence, Postemergence, 125 g ai/ha): 0%
Corn plant response rating (crop injury, 0 = no effect, 100 = complete kill) at 250 g/ha (corn (Zea mays); Zea mays, post-emergence, Postemergence, 250 g ai/ha): 0%
Corn plant response rating (crop injury, 0 = no effect, 100 = complete kill) at 500 g/ha (corn (Zea mays); Zea mays, post-emergence, Postemergence, 500 g ai/ha): 0%
pest or weed control at 31 g/ha ([3]; Commelina virginica, post-emergence, Postemergence, 31 g ai/ha): 0%
pest or weed control at 62 g/ha ([3]; Commelina virginica, post-emergence, Postemergence, 62 g ai/ha): 0%
pest or weed control at 125 g/ha ([3]; Commelina virginica, post-emergence, Postemergence, 125 g ai/ha): 0%
pest or weed control at 250 g/ha ([3]; Commelina virginica, post-emergence, Postemergence, 250 g ai/ha): 0%
pest or weed control at 500 g/ha ([3]; Commelina virginica, post-emergence, Postemergence, 500 g ai/ha): 0%
Dayflower, VA plant response rating ([3]; 62 g ai/ha): 0
Dayflower, VA plant response rating ([3]; 125 g ai/ha): 0
Dayflower, VA plant response rating ([3]; 250 g ai/ha): 0
Dayflower, VA plant response rating ([3]; 500 g ai/ha): 0
pest or weed control at 31 g/ha ([4]; Panicum dichotomiflorum, post-emergence, Postemergence, 31 g ai/ha): 0%
pest or weed control at 62 g/ha ([4]; Panicum dichotomiflorum, post-emergence, Postemergence, 62 g ai/ha): 0%
pest or weed control at 125 g/ha ([4]; Panicum dichotomiflorum, post-emergence, Postemergence, 125 g ai/ha): 0%
pest or weed control at 250 g/ha ([4]; Panicum dichotomiflorum, post-emergence, Postemergence, 250 g ai/ha): 0%
pest or weed control at 500 g/ha ([4]; Panicum dichotomiflorum, post-emergence, Postemergence, 500 g ai/ha): 0%
Panicum, Fall plant response rating ([4]; 62 g ai/ha): 0
Panicum, Fall plant response rating ([4]; 250 g ai/ha): 0
pest or weed control at 31 g/ha ([5]; Convolvulus arvensis, post-emergence, Postemergence, 31 g ai/ha): 0%
pest or weed control at 62 g/ha ([5]; Convolvulus arvensis, post-emergence, Postemergence, 62 g ai/ha): 0%
pest or weed control at 125 g/ha ([5]; Convolvulus arvensis, post-emergence, Postemergence, 125 g ai/ha): 0%
pest or weed control at 250 g/ha ([5]; Convolvulus arvensis, post-emergence, Postemergence, 250 g ai/ha): 10%
pest or weed control at 500 g/ha ([5]; Convolvulus arvensis, post-emergence, Postemergence, 500 g ai/ha): 10%
Field Bindweed plant response rating ([5]; 62 g ai/ha): 0
Field Bindweed plant response rating ([5]; 125 g ai/ha): 0
Field Bindweed plant response rating ([5]; 250 g ai/ha): 0
Field Bindweed plant response rating ([5]; 500 g ai/ha): 0
pest or weed control at 31 g/ha ([6]; Bidens pilosa, post-emergence, Postemergence, 31 g ai/ha): 80%
pest or weed control at 62 g/ha ([6]; Bidens pilosa, post-emergence, Postemergence, 62 g ai/ha): 85%
pest or weed control at 125 g/ha ([6]; Bidens pilosa, post-emergence, Postemergence, 125 g ai/ha): 90%
pest or weed control at 250 g/ha ([6]; Bidens pilosa, post-emergence, Postemergence, 250 g ai/ha): 95%
pest or weed control at 500 g/ha ([6]; Bidens pilosa, post-emergence, Postemergence, 500 g ai/ha): 95%
Beggarticks plant response rating ([6]; 62 g ai/ha): 0
Beggarticks plant response rating ([6]; 125 g ai/ha): 0
Beggarticks plant response rating ([6]; 250 g ai/ha): 0
Beggarticks plant response rating ([6]; 500 g ai/ha): 0
pest or weed control at 31 g/ha ([7]; Amaranthus palmeri, post-emergence, Postemergence, 31 g ai/ha): 70%
pest or weed control at 62 g/ha ([7]; Amaranthus palmeri, post-emergence, Postemergence, 62 g ai/ha): 80%
pest or weed control at 125 g/ha ([7]; Amaranthus palmeri, post-emergence, Postemergence, 125 g ai/ha): 80%
pest or weed control at 250 g/ha ([7]; Amaranthus palmeri, post-emergence, Postemergence, 250 g ai/ha): 85%
pest or weed control at 500 g/ha ([7]; Amaranthus palmeri, post-emergence, Postemergence, 500 g ai/ha): 98%
Pigweed, Palmer plant response rating ([7]; 62 g ai/ha): 20
Pigweed, Palmer plant response rating ([7]; 125 g ai/ha): 50
Pigweed, Palmer plant response rating ([7]; 250 g ai/ha): 90
Pigweed, Palmer plant response rating ([7]; 500 g ai/ha): 85
pest or weed control at 31 g/ha ([8]; Cenchrus echinatus, post-emergence, Postemergence, 31 g ai/ha): 0%
pest or weed control at 62 g/ha ([8]; Cenchrus echinatus, post-emergence, Postemergence, 62 g ai/ha): 0%
pest or weed control at 125 g/ha ([8]; Cenchrus echinatus, post-emergence, Postemergence, 125 g ai/ha): 0%
pest or weed control at 250 g/ha ([8]; Cenchrus echinatus, post-emergence, Postemergence, 250 g ai/ha): 0%
pest or weed control at 500 g/ha ([8]; Cenchrus echinatus, post-emergence, Postemergence, 500 g ai/ha): 0%
Sandbur plant response rating ([8]; 62 g ai/ha): 0
Sandbur plant response rating ([8]; 125 g ai/ha): 0
Sandbur plant response rating ([8]; 250 g ai/ha): 0
Sandbur plant response rating ([8]; 500 g ai/ha): 0
plant injury at 31 g/ha (soybean (Glycine max); Glycine max, post-emergence, Postemergence, 31 g ai/ha): 0%
plant injury at 62 g/ha (soybean (Glycine max); Glycine max, post-emergence, Postemergence, 62 g ai/ha): 0%
plant injury at 125 g/ha (soybean (Glycine max); Glycine max, post-emergence, Postemergence, 125 g ai/ha): 0%
plant injury at 250 g/ha (soybean (Glycine max); Glycine max, post-emergence, Postemergence, 250 g ai/ha): 10%
plant injury at 500 g/ha (soybean (Glycine max); Glycine max, post-emergence, Postemergence, 500 g ai/ha): 20%
Soybean plant response rating (soybean (Glycine max); 62 g ai/ha): 0
Soybean plant response rating (soybean (Glycine max); 125 g ai/ha): 0
Soybean plant response rating (soybean (Glycine max); 250 g ai/ha): 0
Soybean plant response rating (soybean (Glycine max); 500 g ai/ha): 0
pest or weed control at 31 g/ha ([9]; Amaranthus tuberculatus, post-emergence, Postemergence, 31 g ai/ha): 80%
pest or weed control at 125 g/ha ([9]; Amaranthus tuberculatus, post-emergence, Postemergence, 125 g ai/ha): 90%
pest or weed control at 250 g/ha ([9]; Amaranthus tuberculatus, post-emergence, Postemergence, 250 g ai/ha): 95%
pest or weed control at 500 g/ha ([9]; Amaranthus tuberculatus, post-emergence, Postemergence, 500 g ai/ha): 98%
Waterhemp plant response rating ([9]; 62 g ai/ha): 85
Waterhemp plant response rating ([9]; 125 g ai/ha): 95
Waterhemp plant response rating ([9]; 250 g ai/ha): 100
Waterhemp plant response rating ([9]; 500 g ai/ha): 100
pest or weed control at 31 g/ha ([10]; Euphorbia heterophylla, post-emergence, Postemergence, 31 g ai/ha, read-out: Plant response rating, Poinsettia, Wild): 0%
pest or weed control at 62 g/ha ([10]; Euphorbia heterophylla, post-emergence, Postemergence, 62 g ai/ha, read-out: Plant response rating, Poinsettia, Wild): 0%
pest or weed control at 125 g/ha ([10]; Euphorbia heterophylla, post-emergence, Postemergence, 125 g ai/ha, read-out: Plant response rating, Poinsettia, Wild): 0%
pest or weed control at 250 g/ha ([10]; Euphorbia heterophylla, post-emergence, Postemergence, 250 g ai/ha, read-out: Plant response rating, Poinsettia, Wild): 0%
pest or weed control at 500 g/ha ([10]; Euphorbia heterophylla, post-emergence, Postemergence, 500 g ai/ha, read-out: Plant response rating, Poinsettia, Wild): 10%
Poinsettia, Wild plant response rating ([10]; 62 g ai/ha): 0
Poinsettia, Wild plant response rating ([10]; 125 g ai/ha): 0
Poinsettia, Wild plant response rating ([10]; 250 g ai/ha): 0
Poinsettia, Wild plant response rating ([10]; 500 g ai/ha): 0
